Source: patent publication US20060069132A1, “Azolecarboxamide herbicides” (priority 2004, published 2006)

Key:
giant foxtail = test: Test B pre-/postemergence herbicide test; format: in vivo, Setaria faberi; conditions: for Plant response rating (0 to 100 scale), Foxtail, Giant: 0 is no effect; for Plant response rating (0 to 100 scale), Foxtail, Giant / Plant response rating, Foxtail, Giant: preemergence; for Foxtail, Giant plant response rating: postemergence; for Plant response rating, Foxtail, Giant: 0 = no effect, 100 = complete control
Procedure, shortened: (§1)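 Visual rating, 0 (no effect) to 100 (complete control), versus untreated controls after 13–15 d in greenhouse. Pre- and postemergence applications (postemergence plants 2–18 cm, 1–4 leaves); flooded paddy arm at 2-leaf stage. Compounds in non-phytotoxic solvent plus surfactant.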

rice [1] = test: Test B pre-/postemergence herbicide test; format: in vivo, Oryza sativa; conditions: preemergence; for Plant response rating (0 to 100 scale), Rice: 125 g ai/ha, 0 is no effect, 100 is complete control; for Plant response rating, Rice: 500 g ai/ha, visual rating, 0 = no effect, 100 = complete control
Procedure, shortened: as §1

morningglory = test: Test B pre-/postemergence herbicide test; format: in vivo, Ipomoea coccinea; conditions: for Plant response rating (0 to 100 scale), Morningglory: 0 is no effect; for Plant response rating (0 to 100 scale), Morningglory / Plant response rating, Morningglory: preemergence; for Morningglory plant response rating: postemergence; for Plant response rating, Morningglory: 0 = no effect, 100 = complete control
Procedure, shortened: (§2)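 Plants compared with untreated controls 13–15 days post-treatment and given a visual 0–100 injury score. Applications: preemergence to seeds; postemergence at 1- to 4-leaf (2–18 cm); paddy species flooded, 2-leaf stage. Vehicle non-phytotoxic, surfactant included.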

blackgrass = test: Test B postemergence herbicide test; format: in vivo, Alopecurus myosuroides; conditions: postemergence
Procedure, shortened: (§3)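 Formulated test chemicals went onto postemergence plants measuring 2 to 18 cm, at one to four leaves. For the paddy assay, species had reached two leaves. Scoring took place 13–15 days later by eye, relative to untreated plants, using 0 for no effect up to 100 for full control.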

rice [2] = test: Test B flooded paddy test; format: in vivo, Oryza sativa; conditions: 1000 g ai/ha, scale 0 to 100 (0 no effect, 100 complete control)
Procedure, shortened: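 Read-out: visual comparison with controls, scored 0 to 100, where 100 means complete control and 0 no effect. Formulated chemicals were applied postemergence to plants 2–18 cm tall (1- to 4-leaf), or to flooded-paddy plants at the 2-leaf stage, then held 13 to 15 days under glass.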

corn = test: Test B pre-/postemergence herbicide test; format: in vivo, Zea mays; conditions: for Plant response rating (0 to 100 scale), Corn: 0 is no effect; for Plant response rating (0 to 100 scale), Corn / Plant response rating, Corn: preemergence; for Corn plant response rating: postemergence; for Plant response rating, Corn: 0 = no effect, 100 = complete control
Procedure, shortened: as §1

barnyardgrass [3] = test: Test B flooded paddy test; format: in vivo, Echinochloa crus-galli; conditions: 1000 g ai/ha, scale 0 to 100 (0 no effect, 100 complete control)
Procedure, shortened: as §3

velvetleaf = test: Test B pre-/postemergence herbicide test; format: in vivo, Abutilon theophrasti; conditions: for Plant response rating (0 to 100 scale), Velvetleaf: 0 is no effect; for Velvetleaf plant response rating: postemergence
Procedure, shortened: as §1

pigweed = test: Test B pre-/postemergence herbicide test; format: in vivo, Amaranthus retroflexus; conditions: for Plant response rating (0 to 100 scale), Pigweed: 0 is no effect; for Plant response rating (0 to 100 scale), Pigweed / Plant response rating, Pigweed: preemergence; for Pigweed plant response rating: postemergence; for Plant response rating, Pigweed: 0 = no effect, 100 = complete control
Procedure, shortened: as §1

large crabgrass = test: Test B pre-/postemergence herbicide test; format: in vivo, Digitaria sanguinalis; conditions: for Plant response rating (0 to 100 scale), Crabgrass, Large: 0 is no effect; for Plant response rating (0 to 100 scale), Crabgrass, Large / Plant response rating, Crabgrass, Large: preemergence; for Crabgrass, Large plant response rating: postemergence; for Plant response rating, Crabgrass, Large: 0 = no effect, 100 = complete control
Procedure, shortened: as §1

barnyardgrass [4] = test: Test B pre-/postemergence herbicide test; format: in vivo, Echinochloa crus-galli; conditions: for Plant response rating (0 to 100 scale), Barnyardgrass: 0 is no effect; for Plant response rating (0 to 100 scale), Barnyardgrass / Plant response rating, Barnyardgrass: preemergence; for Barnyardgrass plant response rating: postemergence; for Plant response rating, Barnyardgrass: 0 = no effect, 100 = complete control
Procedure, shortened: as §2

wild oat = test: Test B postemergence herbicide test; format: in vivo, Avena fatua; conditions: postemergence
Procedure, shortened: as §3

Surinam grass = test: Test B pre-/postemergence herbicide test; format: in vivo, Urochloa decumbens; conditions: for Plant response rating (0 to 100 scale), Surinam Grass: 0 is no effect; for Plant response rating (0 to 100 scale), Surinam Grass / Plant response rating, Surinam Grass: preemergence; for Surinam Grass plant response rating: postemergence; for Plant response rating, Surinam Grass: 0 = no effect, 100 = complete control
Procedure, shortened: as §1

cocklebur = test: Test B pre-/postemergence herbicide test; format: in vivo, Xanthium strumarium; conditions: for Plant response rating (0 to 100 scale), Cocklebur: 0 is no effect; for Plant response rating (0 to 100 scale), Cocklebur / Plant response rating, Cocklebur: preemergence; for Cocklebur plant response rating: postemergence; for Plant response rating, Cocklebur: 0 = no effect, 100 = complete control
Procedure, shortened: as §2

wheat = test: Test B postemergence herbicide test; format: in vivo, Triticum aestivum; design: key to Wheat plant response rating: 0 = no effect, 100 = complete control; conditions: postemergence
Procedure, shortened: as §3

lambsquarters = test: Test B pre-/postemergence herbicide test; format: in vivo, Chenopodium album; conditions: for Plant response rating (0 to 100 scale), Lambsquarters: 0 is no effect; for Plant response rating (0 to 100 scale), Lambsquarters / Plant response rating, Lambsquarters: preemergence; for Lambsquarters plant response rating: postemergence; for Plant response rating, Lambsquarters: 0 = no effect, 100 = complete control
Procedure, shortened: as §1

ducksalad = test: Test B flooded paddy test; format: in vivo, Heteranthera limosa; conditions: 1000 g ai/ha, scale 0 to 100 (0 no effect, 100 complete control)
Procedure, shortened: as §3

[5] = tested on: small flower umbrella sedge; test: Test B flooded paddy test; format: in vivo, Cyperus difformis; conditions: 1000 g ai/ha, scale 0 to 100 (0 no effect, 100 complete control)
Procedure, shortened: as §3

[6] = 125 g ai/ha, 100 is complete control
[7] = 125 g ai/ha, visual rating, scale 0 (no effect) to 100 (complete control)
[8] = 500 g ai/ha, scale 0 to 100, 0 is no effect, 100 is complete control
[9] = 125 g ai/ha, 100 is complete control, preemergence

CCc1cn(C(C)(C)C)nc1C(=O)Nc1cccc(C(=O)N(C)C)n1 [Compound 330]
Plant response rating (0 to 100 scale), Foxtail, Giant (giant foxtail; [6]): 0 | Foxtail, Giant plant response rating (giant foxtail; [7]): 0 | Plant response rating, Foxtail, Giant (giant foxtail; 500 g ai/ha, visual rating): 0 | Foxtail, Giant plant response rating (giant foxtail; [8]): 0 | Plant response rating (0 to 100 scale), Rice (rice [1]): 0 | Plant response rating, Rice (rice [1]): 0 | Plant response rating (0 to 100 scale), Morningglory (morningglory; [6]): 0 | Morningglory plant response rating (morningglory; [7]): 10 | Plant response rating, Morningglory (morningglory; 500 g ai/ha, visual rating): 0 | Morningglory plant response rating (morningglory; [8]): 10 | Blackgrass plant response rating (blackgrass; [7]): 0 | Blackgrass plant response rating (blackgrass; [8]): 0 | Rice plant response rating (rice [2]): 0 | Plant response rating (0 to 100 scale), Corn (corn; [6]): 0 | Corn plant response rating (corn; [7]): 0 | Plant response rating, Corn (corn; 500 g ai/ha, visual rating): 0 | Corn plant response rating (corn; [8]): 0 | Barnyardgrass plant response rating (barnyardgrass [3]): 0 | Plant response rating (0 to 100 scale), Velvetleaf (velvetleaf; [9]): 0 | Velvetleaf plant response rating (velvetleaf; [7]): 0 | Plant response rating, Velvetleaf (velvetleaf; 500 g ai/ha, visual rating, 0 = no effect, 100 = complete control, preemergence): 0 | Velvetleaf plant response rating (velvetleaf; [8]): 10 | Plant response rating (0 to 100 scale), Pigweed (pigweed; [6]): 0 | Pigweed plant response rating (pigweed; [7]): 0 | Plant response rating, Pigweed (pigweed; 500 g ai/ha, visual rating): 0 | Pigweed plant response rating (pigweed; [8]): 0 | Plant response rating (0 to 100 scale), Crabgrass, Large (large crabgrass; [6]): 0 | Crabgrass, Large plant response rating (large crabgrass; [7]): 0 | Plant response rating, Crabgrass, Large (large crabgrass; 500 g ai/ha, visual rating): 0 | Crabgrass, Large plant response rating (large crabgrass; [8]): 0 | Plant response rating (0 to 100 scale), Barnyardgrass (barnyardgrass [4]; [6]): 0 | Barnyardgrass plant response rating (barnyardgrass [4]; [7]): 0 | Plant response rating, Barnyardgrass (barnyardgrass [4]; 500 g ai/ha, visual rating): 0 | Barnyardgrass plant response rating (barnyardgrass [4]; [8]): 0 | Oat, Wild plant response rating (wild oat; [7]): 0 | Oat, Wild plant response rating (wild oat; [8]): 20 | Plant response rating (0 to 100 scale), Surinam Grass (Surinam grass; [6]): 0 | Surinam Grass plant response rating (Surinam grass; [7]): 0 | Plant response rating, Surinam Grass (Surinam grass; 500 g ai/ha, visual rating): 0 | Surinam Grass plant response rating (Surinam grass; [8]): 0 | Plant response rating (0 to 100 scale), Cocklebur (cocklebur; [6]): 0 | Cocklebur plant response rating (cocklebur; [7]): 0 | Plant response rating, Cocklebur (cocklebur; 500 g ai/ha, visual rating): 0 | Cocklebur plant response rating (cocklebur; [8]): 0 | Wheat plant response rating (wheat; [7]): 0 | Wheat plant response rating (wheat; [8]): 0 | Plant response rating (0 to 100 scale), Lambsquarters (lambsquarters; [6]): 0 | Lambsquarters plant response rating (lambsquarters; [7]): 0 | Plant response rating, Lambsquarters (lambsquarters; 500 g ai/ha, visual rating): 0 | Lambsquarters plant response rating (lambsquarters; [8]): 10 | Ducksalad plant response rating (ducksalad): 0 | Sedge, Umbrella plant response rating [5]: 0

CCNC(=O)c1cccc(NC(=O)c2cc(C(C)(C)C)n[nH]2)c1 [Compound 351]
Plant response rating (0 to 100 scale), Foxtail, Giant (giant foxtail; [6]): 0 | Foxtail, Giant plant response rating (giant foxtail; [7]): 0 | Plant response rating, Foxtail, Giant (giant foxtail; 500 g ai/ha, visual rating): 0 | Foxtail, Giant plant response rating (giant foxtail; [8]): 0 | Plant response rating (0 to 100 scale), Rice (rice [1]): 0 | Plant response rating, Rice (rice [1]): 0 | Plant response rating (0 to 100 scale), Morningglory (morningglory; [6]): 0 | Morningglory plant response rating (morningglory; [7]): 0 | Plant response rating, Morningglory (morningglory; 500 g ai/ha, visual rating): 0 | Morningglory plant response rating (morningglory; [8]): 0 | Blackgrass plant response rating (blackgrass; [7]): 0 | Blackgrass plant response rating (blackgrass; [8]): 0 | Rice plant response rating (rice [2]): 0 | Plant response rating (0 to 100 scale), Corn (corn; [6]): 0 | Corn plant response rating (corn; [7]): 0 | Plant response rating, Corn (corn; 500 g ai/ha, visual rating): 0 | Corn plant response rating (corn; [8]): 10 | Barnyardgrass plant response rating (barnyardgrass [3]): 0 | Plant response rating (0 to 100 scale), Velvetleaf (velvetleaf; [9]): 0 | Velvetleaf plant response rating (velvetleaf; [7]): 0 | Velvetleaf plant response rating (velvetleaf; [8]): 0 | Plant response rating (0 to 100 scale), Pigweed (pigweed; [6]): 0 | Pigweed plant response rating (pigweed; [7]): 0 | Plant response rating, Pigweed (pigweed; 500 g ai/ha, visual rating): 0 | Pigweed plant response rating (pigweed; [8]): 50 | Plant response rating (0 to 100 scale), Crabgrass, Large (large crabgrass; [6]): 0 | Crabgrass, Large plant response rating (large crabgrass; [7]): 0 | Plant response rating, Crabgrass, Large (large crabgrass; 500 g ai/ha, visual rating): 0 | Crabgrass, Large plant response rating (large crabgrass; [8]): 10 | Plant response rating (0 to 100 scale), Barnyardgrass (barnyardgrass [4]; [6]): 0 | Barnyardgrass plant response rating (barnyardgrass [4]; [7]): 0 | Plant response rating, Barnyardgrass (barnyardgrass [4]; 500 g ai/ha, visual rating): 0 | Barnyardgrass plant response rating (barnyardgrass [4]; [8]): 0 | Oat, Wild plant response rating (wild oat; [7]): 0 | Oat, Wild plant response rating (wild oat; [8]): 0 | Plant response rating (0 to 100 scale), Surinam Grass (Surinam grass; [6]): 0 | Surinam Grass plant response rating (Surinam grass; [7]): 0 | Plant response rating, Surinam Grass (Surinam grass; 500 g ai/ha, visual rating): 0 | Surinam Grass plant response rating (Surinam grass; [8]): 0 | Plant response rating (0 to 100 scale), Cocklebur (cocklebur; [6]): 0 | Cocklebur plant response rating (cocklebur; [7]): 0 | Plant response rating, Cocklebur (cocklebur; 500 g ai/ha, visual rating): 0 | Cocklebur plant response rating (cocklebur; [8]): 0 | Wheat plant response rating (wheat; [7]): 0 | Wheat plant response rating (wheat; [8]): 0 | Plant response rating (0 to 100 scale), Lambsquarters (lambsquarters; [6]): 0 | Lambsquarters plant response rating (lambsquarters; [7]): 0 | Plant response rating, Lambsquarters (lambsquarters; 500 g ai/ha, visual rating): 0 | Lambsquarters plant response rating (lambsquarters; [8]): 10 | Ducksalad plant response rating (ducksalad): 0 | Sedge, Umbrella plant response rating [5]: 0
